SMILES strings stand for the structures. Where “and” joins values, the source holds several entries; their conditions need not be identical. Equal entries are not always repeated.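 A five-concentration, 48-hour dose response in 96-well plates underlies each endpoint, interpolated linearly between surrounding concentrations. At the GI50, growth is halved. TGI denotes the concentration required for complete inhibition of growth.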 Where a SMILES comes first, the peptide text is derived from it. [ ]: non-standard residue; d: D form. Some results are limits rather than exact numbers.

These results are taken from PubChem BioAssay (NCI).

Test systems include HCC-2998 colon; MOLT-4 leukemia; HT29 colon; HCT-116 colon; SF-268 CNS; OVCAR-5 ovarian; UACC-62 melanoma; MDA-MB-231 breast; NCI-H460 lung; M14 melanoma.
Common to all, as to test: DTP human tumour cell line panel, 48 h

As to `CSCC[C@H](NC(=O)[C@@H](N)CC(N)=O)C(=O)N[C@@H](Cc1c[nH]c2ccccc12)C(=O)N[C@@H](CCC(N)=O)C(=O)N[C@@H](CCC(=O)O)C(=O)N[C@H](C(=O)NCC(=O)N[C@@H](CCCCN)C(=O)N[C@H](C)C(=O)O)C(C)C` (H-NMWQEVGK[dA]-OH), the concentration for total growth inhibition (TGI) in the assay on HCC-2998 colon, with MOLT-4 leukemia, with HT29 colon, in the assay with HCT-116 colon, in the assay on SF-268 CNS and in the assay on OVCAR-5 ovarian was over 100 µM each time. Moreover, the total growth inhibition concentration (TGI) in the assay with UACC-62 melanoma, in the assay with MDA-MB-231 breast, in the assay with NCI-H460 lung and with M14 melanoma was over 100 µM each time.
Turning to `COc1ccc(/C=C2/CSC/C(=C/c3ccc(OC)c(OC)c3)C2=O)cc1OC`, the TGI was 6.28 µM in the assay on HCC-2998 colon; over 20.9 µM in the assay with MOLT-4 leukemia; 2.7 µM in the assay with HT29 colon; 2.28 µM with HCT-116 colon; 18.4 µM in the assay on SF-268 CNS; 12.7 µM with OVCAR-5 ovarian. In addition, the TGI with UACC-62 melanoma turned out to be 3.32 µM; with MDA-MB-231 breast, 8.18 µM; with NCI-H460 lung it was 7.09 µM; in the assay on M14 melanoma it was 10.5 µM.
As for `Cn1cccc1-c1cc(-c2ccccc2)nc(N)c1C#N`, the GI50 was over 100 µM in the assay on HCC-2998 colon; over 70 µM in the assay with MOLT-4 leukemia; over 100 µM in the assay on HT29 colon; over 100 µM with HCT-116 colon; over 100 µM with SF-268 CNS; over 100 µM in the assay on OVCAR-5 ovarian. In addition, the GI50 in the assay on UACC-62 melanoma was 34.5 µM; in the assay on MDA-MB-231 breast it was over 82 µM; with NCI-H460 lung it was over 100 µM; in the assay with M14 melanoma it was over 100 µM. The TGI in the assay with HCC-2998 colon, in the assay with MOLT-4 leukemia, in the assay with HT29 colon, with HCT-116 colon, in the assay with SF-268 CNS and with OVCAR-5 ovarian was over 100 µM each time. The concentration for total growth inhibition (TGI) in the assay with UACC-62 melanoma, in the assay with MDA-MB-231 breast, with NCI-H460 lung and with M14 melanoma was over 100 µM each time.
Consider `O=C1/C(=C/c2ccc(O)cc2)Oc2ccccc21`, for which the concentration for total growth inhibition (TGI) in the assay on HCC-2998 colon, in the assay with MOLT-4 leukemia, in the assay on HT29 colon, with HCT-116 colon, in the assay on SF-268 CNS and with OVCAR-5 ovarian was over 100 µM throughout. Further, the TGI in the assay on UACC-62 melanoma, with MDA-MB-231 breast, in the assay with NCI-H460 lung and with M14 melanoma was over 100 µM in each case.
Consider `CCCC(=O)OC(OC(=O)CCC)c1ccc([N+](=O)[O-])o1`, for which the TGI was 32.1 µM in the assay on HCC-2998 colon; 98.4 µM in the assay with MOLT-4 leukemia; 42.8 µM in the assay with HT29 colon; 32.8 µM with HCT-116 colon; over 100 µM with SF-268 CNS; 39.6 µM in the assay on OVCAR-5 ovarian. Further, the concentration for total growth inhibition (TGI) was 49.1 µM with UACC-62 melanoma, 68 µM with MDA-MB-231 breast, over 100 µM with NCI-H460 lung and 47.8 µM in the assay on M14 melanoma.
Regarding `CS(=O)(=O)CCNCc1ccoc1-c1ccc2ncnc(Nc3ccc(OCc4ccccc4)cc3)c2c1`, the GI50 in the assay with HCC-2998 colon is over 25 µM; with MOLT-4 leukemia, 20.1 µM; with HT29 colon, 9.55 µM; in the assay on HCT-116 colon, over 25 µM; with SF-268 CNS, over 25 µM; in the assay with OVCAR-5 ovarian, over 25 µM. Besides, the GI50 with UACC-62 melanoma was over 25 µM; in the assay on MDA-MB-231 breast, over 25 µM; in the assay with NCI-H460 lung, 11.4 µM; in the assay with M14 melanoma it was over 25 µM. Further, the concentration for total growth inhibition (TGI) in the assay with HCC-2998 colon, in the assay on MOLT-4 leukemia, in the assay on HT29 colon, in the assay with HCT-116 colon, in the assay on SF-268 CNS and in the assay on OVCAR-5 ovarian was over 25 µM in each case. Further, the total growth inhibition concentration (TGI) in the assay on UACC-62 melanoma, with MDA-MB-231 breast, with NCI-H460 lung and in the assay on M14 melanoma was over 25 µM each time.
Consider `CC1=C(SCCC(=O)OC(C[Se]C2=C(C)C(=O)c3ccccc3C2=O)C(=O)NC(C)(C)C)C(=O)c2ccccc2C1=O` (stereo not drawn), for which the GI50 was 1.59 µM in the assay on HCC-2998 colon; 0.274 µM in the assay on MOLT-4 leukemia; 1.78 µM in the assay on HT29 colon; 0.384 µM in the assay with HCT-116 colon; 1.55 µM in the assay on SF-268 CNS; 1.69 µM in the assay with OVCAR-5 ovarian. Besides, the GI50 was 1.48 µM in the assay on UACC-62 melanoma, 1.49 µM in the assay on MDA-MB-231 breast, 0.44 µM with NCI-H460 lung and 1.32 µM in the assay on M14 melanoma. For the same molecule, the TGI in the assay with HCC-2998 colon came to 2.96 µM; in the assay on MOLT-4 leukemia, 1.31 µM; with HT29 colon, 3.39 µM; in the assay on HCT-116 colon, 1.44 µM; in the assay on SF-268 CNS, 2.88 µM; in the assay with OVCAR-5 ovarian it was 3.08 µM. Moreover, the concentration for total growth inhibition (TGI) in the assay with UACC-62 melanoma is 2.83 µM; in the assay with MDA-MB-231 breast it was 2.94 µM; in the assay on NCI-H460 lung, 2.06 µM; in the assay on M14 melanoma it was 2.67 µM.
Take `Cc1cc2nc(-c3ccc(O)c(O)c3)n(Cc3ccc(O)c(O)c3)c2cc1C`: the GI50 in the assay with HCC-2998 colon was 24.6 µM; in the assay on MOLT-4 leukemia it was 4.4 µM; in the assay on HT29 colon, 45.1 µM; in the assay with HCT-116 colon, 19.6 µM; in the assay with SF-268 CNS, 18.5 µM; with OVCAR-5 ovarian it was over 100 µM. Besides, the GI50 was 19 µM in the assay on UACC-62 melanoma, 24.1 µM in the assay with MDA-MB-231 breast, 13.4 µM with NCI-H460 lung and 39.2 µM in the assay on M14 melanoma. In addition, the TGI in the assay on HCC-2998 colon is 56.3 µM; with MOLT-4 leukemia, 28.6 µM; in the assay with HT29 colon, over 100 µM; in the assay on HCT-116 colon, 35.1 µM; in the assay on SF-268 CNS, 84.3 µM; in the assay on OVCAR-5 ovarian it was over 100 µM. For the same molecule, the concentration for total growth inhibition (TGI) is 41.1 µM with UACC-62 melanoma, 77.3 µM with MDA-MB-231 breast, 43.1 µM in the assay with NCI-H460 lung and over 100 µM with M14 melanoma.
`COC(=O)Nc1nc2ccc(C(=O)c3cccs3)cc2[nH]1`: the 50% growth inhibitory concentration (GI50) with HCC-2998 colon is 0.0574 µM and 0.197 µM; in the assay with MOLT-4 leukemia, 0.269 µM; with HT29 colon, 0.0552 µM; with HCT-116 colon, 0.0732 µM; in the assay with SF-268 CNS, 0.452 µM; with OVCAR-5 ovarian, 0.545 µM. In addition, the concentration for 50% growth inhibition (GI50) in the assay on UACC-62 melanoma is 0.189 µM; with MDA-MB-231 breast, 0.595 µM; with NCI-H460 lung, 0.239 µM; with M14 melanoma, 0.0797 µM. In addition, the TGI in the assay on HCC-2998 colon was 11.5 µM and > 100 µM; in the assay on MOLT-4 leukemia, 13 µM and > 100 µM; in the assay with HCT-116 colon it was 16.5 µM and 14.2 µM; in the assay with SF-268 CNS it was 60.7 µM and > 100 µM; with OVCAR-5 ovarian, over 100 µM; in the assay on UACC-62 melanoma it was 65.4 µM and > 100 µM. In addition, the TGI was 79.2 µM and > 100 µM in the assay with MDA-MB-231 breast; 2.79 µM and 0.432 µM in the assay on M14 melanoma.

The term TGI denotes the concentration giving total growth inhibition. Higher therefore signals less potent growth arrest. A word on the GI50: it is the concentration that inhibits growth by half.
